Measurements as given in patent publication US20150005277A1, “Protein Kinase Inhibitors and Uses Thereof” (Beigene, Ltd., priority 2013, published 2015).

Key:
Recombinant Btk = Recombinant Btk (Homo sapiens, UniProt Q06187); experiment: Btk Kinase Assay (TR-FRET)
[1] = molecular target: T1, phosphorylated Btk at Tyr223 in Ramos cells (Homo sapiens, UniProt Q06187); experiment: Btk pY223 Cellular Assay (HTRF, Ramos cells); type: cell-based; conditions: 1 hour compound incubation, stimulated with pervanadate or Na3VO4, read-out: 1050 (nM) Btk pY223
T1 construct: determine the endogenous levels of phosphorylated Btk at Tyr223; endogenous in cells; host or cells: Ramos cells (CRL-1596, ATCC)
T1 sequence (Q06187 whole entry): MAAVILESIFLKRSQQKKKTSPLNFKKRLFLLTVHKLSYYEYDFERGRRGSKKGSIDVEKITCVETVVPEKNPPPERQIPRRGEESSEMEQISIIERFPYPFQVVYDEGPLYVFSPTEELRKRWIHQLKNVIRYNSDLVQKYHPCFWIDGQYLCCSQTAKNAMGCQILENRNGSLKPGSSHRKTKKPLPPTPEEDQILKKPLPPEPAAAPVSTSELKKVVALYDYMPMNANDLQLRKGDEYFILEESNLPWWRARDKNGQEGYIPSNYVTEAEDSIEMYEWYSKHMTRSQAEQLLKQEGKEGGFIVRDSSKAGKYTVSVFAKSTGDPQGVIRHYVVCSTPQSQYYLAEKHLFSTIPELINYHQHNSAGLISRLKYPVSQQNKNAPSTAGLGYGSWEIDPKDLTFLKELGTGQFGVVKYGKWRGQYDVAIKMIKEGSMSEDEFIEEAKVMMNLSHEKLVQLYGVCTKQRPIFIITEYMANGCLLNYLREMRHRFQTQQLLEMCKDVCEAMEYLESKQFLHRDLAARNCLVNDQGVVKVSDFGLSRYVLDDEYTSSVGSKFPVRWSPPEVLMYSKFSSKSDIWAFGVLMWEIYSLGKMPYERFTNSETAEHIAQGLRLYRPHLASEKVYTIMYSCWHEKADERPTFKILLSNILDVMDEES
Method: Btk pY223 cellular assay is a HTRF based assay intended to determine the endogenous levels of phosphorylated Btk at Tyr223. Phosphorylated Tyr223 is necessary for full activation of Btk.
Briefly, Ramos cells were serum starved in 0.5% FBS-containing RPMI1640 for 2 hours. Following starvation, the cells were incubated with compounds to be detected at various concentrations in a CO2 incubator for 1 hour. After incubation, cells were stimulated with 1 mM pervanadate (PV) or Na3VO4 (OV) for 20 min. Then, the cells were spinned down and lysed with 1× lysis buffer at RT for 10 min (4× lysis buffer supplied in the kit). During the incubation, 1× antibody mix was prepared by diluting anti-Btk-d2 and anti-pBtk-K in detection buffer (supplied in the kit). […] After that, 18 ul of cell lysate was transferred to the assay plate pre-loaded with antibody solution. After mixing gently and spinning briefly, the plate was sealed up and kept in dark at RT for 18 hours. The fluorescence emission was measured at two different wavelengths (665 nm and 620 nm) on a compatible HTRF reader (PHERAstar FS, BMG).

Sequence of Recombinant Btk (Q06187 whole entry): as above

IC50 (Recombinant Btk) [nM]	IC50 [1] [nM]	SMILES
0.56	3.6	CN(C)C/C=C/C(=O)N1CCCC(n2nc(-c3ccc(Oc4ccccc4)cc3)c(C(N)=O)c2N)C1 (stereo not shown) [Compound I-4, (E)-5-Amino-1-(1-(4-(dimethylamino)but-2-enoyl)piperidin-3-yl)-3-(4-phenoxyphenyl)-1H-pyrazole-4-carboxamide]
2.5	42.6	CC=CC(=O)N1CCCC(n2nc(-c3ccc(Oc4ccccc4)cc3)c(C(N)=O)c2N)C1 (stereo not shown) [Compound I-5, 5-Amino-1-(1-(but-2-enoyl)piperidin-3-yl)-3-(4-phenoxyphenyl)-1H-pyrazole-4-carboxamide]
0.22	10.4	NC(=O)c1c(-c2ccc(Oc3ccccc3)cc2)nn(C2CCCN(C(=O)CCl)C2)c1N (stereo not shown) [Compound I-6, 5-Amino-1-(1-(2-chloroacetyl)piperidin-3-yl)-3-(4-phenoxyphenyl)-1H-pyrazole-4-carboxamide]
14		CN1CC=C(C(=O)N2CCCC(n3nc(-c4ccc(Oc5ccccc5)cc4)c(C(N)=O)c3N)C2)CC1 (stereo not shown) [Compound I-7, 5-Amino-1-(1-(1-methyl-1,2,3,6-tetrahydropyridine-4-carbonyl)piperidin-3-yl)-3-(4-phenoxyphenyl)-1H-pyrazole-4-carboxamide]
0.23		C=CS(=O)(=O)N1CCCC(n2nc(-c3ccc(Oc4ccccc4)cc3)c(C(N)=O)c2N)C1 (stereo not shown) [Compound I-8, 5-Amino-3-(4-phenoxyphenyl)-1-(1-(vinylsulfonyl)piperidin-3-yl)-1H-pyrazole-4-carboxamide]
22		N#CCC(=O)N1CCCC(n2nc(-c3ccc(Oc4ccccc4)cc3)c(C(N)=O)c2N)C1 (stereo not shown) [Compound I-9, 5-Amino-1-(1-(2-cyanoacetyl)piperidin-3-yl)-3-(4-phenoxyphenyl)-1H-pyrazole-4-carboxamide]
18		CN(C)C(=O)/C=C/CN1CCCC(n2nc(-c3ccc(Oc4ccccc4)cc3)c(C(N)=O)c2N)C1 (stereo not shown) [Compound I-10, (E)-5-Amino-1-(1-(4-(dimethylamino)-4-oxobut-2-enyl)piperidin-3-yl)-3-(4-phenoxyphenyl)-1H-pyrazole-4-carboxamide]
7.6		N#C/C=C/CN1CCCC(n2nc(-c3ccc(Oc4ccccc4)cc3)c(C(N)=O)c2N)C1 (stereo not shown) [Compound I-11, (E)-5-Amino-1-(1-(3-cyanoallyl)piperidin-3-yl)-3-(4-phenoxyphenyl)-1H-pyrazole-4-carboxamide]
18		N#C/C=C\CN1CCCC(n2nc(-c3ccc(Oc4ccccc4)cc3)c(C(N)=O)c2N)C1 (stereo not shown) [Compound I-12, (Z)-5-Amino-1-(1-(3-cyanoallyl)piperidin-3-yl)-3-(4-phenoxyphenyl)-1H-pyrazole-4-carboxamide]
0.21	7.5	C#CC(=O)N1CCCC(n2nc(-c3ccc(Oc4ccccc4)cc3)c(C(N)=O)c2N)C1 (stereo not shown) [Compound I-13, 5-Amino-3-(4-phenoxyphenyl)-1-(1-propioloylpiperidin-3-yl)-1H-pyrazole-4-carboxamide]
0.54	3.3	C=CC(=O)N1CCC[C@@H](n2nc(-c3ccc(Cl)cc3)c(C(N)=O)c2N)C1 [Compound I-14, (R)-1-(1-Acryloylpiperidin-3-yl)-5-amino-3-(4-chlorophenyl)-1H-pyrazole-4-carboxamide]
0.24	0.3	C=CC(=O)N1CCC[C@@H](n2nc(-c3ccc(C)c(OC)c3)c(C(N)=O)c2N)C1 [Compound I-15, (R)-1-(1-Acryloylpiperidin-3-yl)-5-amino-3-(3-methoxy-4-methylphenyl)-1H-pyrazole-4-carboxamide]
1.4	17.7	C=CC(=O)N1CCC[C@@H](n2nc(-c3ccc(OC)cc3)c(C(N)=O)c2N)C1 [Compound I-16, (R)-1-(1-Acryloylpiperidin-3-yl)-5-amino-3-(4-methoxyphenyl)-1H-pyrazole-4-carboxamide]
0.92		C=CC(=O)N1CCC[C@@H](n2nc(-c3ccc(OCC4CC4)cc3)c(C(N)=O)c2N)C1 [Compound I-17, (R)-1-(1-Acryloylpiperidin-3-yl)-5-amino-3-(4-(cyclopropylmethoxy)phenyl)-1H-pyrazole-4-carboxamide]
2.4		C=CC(=O)N1CCC[C@@H](n2nc(-c3ccc(OC(C)C)cc3)c(C(N)=O)c2N)C1 [Compound I-18, (R)-1-(1-Acryloylpiperidin-3-yl)-5-amino-3-(4-isopropoxyphenyl)-1H-pyrazole-4-carboxamide]
0.15		C=CC(=O)N1CC2(CC(n3nc(-c4ccc(Oc5ccccc5)cc4)c(C(N)=O)c3N)C2)C1 [Compound I-19, 1-(2-Acryloyl-2-azaspiro[3.3]heptan-6-yl)-5-amino-3-(4-phenoxyphenyl)-1H-pyrazole-4-carboxamide]
0.18		C=CC(=O)N1CCC[C@@H](n2nc(-c3ccc(Cl)c(OC)c3)c(C(N)=O)c2N)C1 [Compound I-21, (R)-1-(1-Acryloylpiperidin-3-yl)-5-amino-3-(4-chloro-3-methoxyphenyl)-1H-pyrazole-4-carboxamide]
3.3	16.6	C=CC(=O)N1CCc2c(c(N)c(C(N)=O)n2-c2ccc(Oc3ccccc3)cc2)C1 [II-1, 5-Acryloyl-3-amino-1-(4-phenoxyphenyl)-4,5,6,7-tetrahydro-1H-pyrrolo[3,2-c]pyridine-2-carboxamide]
3200		C=CC(=O)N1CCC(N2CCc3c(c(N)c(C(N)=O)n3-c3ccc(Oc4ccccc4)cc3)C2)C1 (stereo not shown) [II-2, 5-(1-Acryloylpyrrolidin-3-yl)-3-amino-1-(4-phenoxyphenyl)-4,5,6,7-tetrahydro-1H-pyrrolo[3,2-c]pyridine-2-carboxamide]
480		C=CC(=O)NCCN1CCc2c(c(N)c(C(N)=O)n2-c2ccc(Oc3ccccc3)cc2)C1 [II-3, 5-(2-Acrylamidoethyl)-3-amino-1-(4-phenoxyphenyl)-4,5,6,7-tetrahydro-1H-pyrrolo[3,2-c]pyridine-2-carboxamide]
25		C=CC(=O)N1CCc2c(c(N)c(C(N)=O)n2-c2ccc(OCc3ccccc3)cc2)C1 [II-4, 5-Acryloyl-3-amino-1-(4-(benzyloxy)phenyl)-4,5,6,7-tetrahydro-1H-pyrrolo[3,2-c]pyridine-2-carboxamide]
9		C=CC(=O)N1Cc2c(N)c(C(N)=O)n(-c3ccc(Oc4ccccc4)cc3)c2C1 [II-5, 5-Acryloyl-3-amino-1-(4-phenoxyphenyl)-1,4,5,6-tetrahydropyrrolo[3,4-b]pyrrole-2-carboxamide]
34		C=CC(=O)N1Cc2c(N)c(C(N)=O)n(-c3ccc(Oc4ccc(C(C)(C)C)cc4)cc3)c2C1 [II-6, 5-Acryloyl-3-amino-1-(4-(4-(tert-butyl)phenoxy)phenyl)-1,4,5,6-tetrahydropyrrolo[3,4-b]pyrrole-2-carboxamide]
9.4	55.6	C=CC(=O)Nc1ccc2c(c1)c(N)c(C(N)=O)n2-c1ccc(Oc2ccccc2)cc1 [II-7, 5-Acrylamido-3-amino-1-(4-phenoxyphenyl)-1H-indole-2-carboxamide]
210		C=CC(=O)Nc1ccc2c(N)c(C(N)=O)n(-c3ccc(Oc4ccccc4)cc3)c2c1 [II-8, 6-Acrylamido-3-amino-1-(4-phenoxyphenyl)-1H-indole-2-carboxamide]
7600		NC(=O)c1c(N)c(C2CCNCC2)cn1-c1ccc(Oc2ccccc2)cc1 [II-9, 3-Amino-1-(4-phenoxyphenyl)-4-(piperidin-4-yl)-1H-pyrrole-2-carboxamide]
2.7		C=CC(=O)N1CCCC(c2cn(-c3ccc(Oc4ccccc4)cc3)c(C(N)=O)c2N)C1 (stereo not shown) [II-10, 4-(1-Acryloylpiperidin-3-yl)-3-amino-1-(4-phenoxyphenyl)-1H-pyrrole-2-carboxamide]

SMILES	IC50 (Recombinant Btk) [nM]	IC50 [1] [nM]
C=CC(=O)N1CCC[C@@H](n2nc(-c3ccc(OCC(C)C)cc3)c(C(N)=O)c2N)C1 [Compound I-20, (R)-1-(1-Acryloylpiperidin-3-yl)-5-amino-3-(4-isobutoxyphenyl)-1H-pyrazole-4-carboxamide]	0.49	
